Laboratory results taken from patent US9125388B2, “Biological control” (Isis Innovation Limited, priority 1999, dated 2015).

How the values were obtained:
[1] = test system: (Female) Sxlp^e tTa^(A) × tRe lacZ^(III) (Male); assay: Reporter crosses at 25° C., embryos stained for lacZ; type: in vivo, Drosophila melanogaster
Description: As with “single chromosome crosses”, ten to fifteen virgin females homozygous for the tTA construct and five to ten young males homozygous for the tRe construct were placed on food containing or lacking a tetracycline supplement.

[2] = test system: Yp3 tTa, tRe Ras64B^V12 on the 2nd chromosome; assay: Recombinant chromosome experiments / maternal transmission of Tc (Table 1): parents raised on supplement, progeny on normal food, adults by sex; type: in vivo, Drosophila melanogaster; conditions: for ♀ progeny emerging as adults / ♂ progeny emerging as adults: 25° C.
Protocol: 40-45 young females and 20-25 young males raised at 25° C. upon food with the indicated tetracycline supplement were allowed to mate, then transferred to normal (tetracycline-free) food after 3-4 days. These flies were transferred to fresh vials of normal food every day for 12 days, then removed on the 13th day. All the vials were incubated at 25° C. while the progeny developed. The numbers of male and female progeny emerging as adults in each vial were recorded.
A standard range of additive concentrations were used in the following experiments (0.05-20 μg/ml). […] (=“not done”)
All the preceding experiments were performed at 25° C., the standard temperature for Drosophila culture. However, the insects in the wild would clearly be exposed to varying temperatures, so we investigated the extent to which the efficiency of the system is affected by temperature. As with the recombinant chromosome experiments, 40-45 young virgin females and 20-25 young males raised at 25° C. upon food with the indicated tetracycline supplement were allowed to mate, then transferred to normal (tetracycline-free) food after 3-4 days. These flies were transferred to fresh vials of normal food every day. The numbers of male and female progeny emerging as adults in each vial were recorded. These experiments were performed at either 18° C. or 29° C.
We used a strain of Drosophila in which females, but not males, require Tc for viability.
A strain homozygous for second chromosome insertions of both Yp3-tTA and tRe-Ras64B^V12 was tested for the effect of parental dietary Tc. 40-45 young females and 20-25 young males raised at 25° C. upon food with the indicated tetracycline supplement were allowed to mate, then transferred to normal (tetracycline-free) food after 3-4 days. These flies were transferred to fresh vials of normal food every day for 12 days, and then removed on the 13th day. All the vials were incubated at 25° C. while the progeny developed. The total numbers of male and female progeny emerging as adults were recorded.

[3] = parents raised on Tc 0.1 μg/ml, Day 8 on normal food
[4] = parents raised on Tc 0.1 μg/ml, Day 9 on normal food
[5] = parents raised on Tc 0.1 μg/ml, Day 10 on normal food
[6] = parents raised on Tc 0.1 μg/ml, Day 11 on normal food
[7] = parents raised on Tc 0.1 μg/ml, Day 12 on normal food
[8] = parents raised on Tc 0.1 μg/ml, Total of Days 1-12 on normal food
[9] = parents raised on Tc 1 μg/ml, Day 8 on normal food
[10] = parents raised on Tc 1 μg/ml, Day 9 on normal food
[11] = parents raised on Tc 1 μg/ml, Day 10 on normal food
[12] = parents raised on Tc 1 μg/ml, Day 11 on normal food
[13] = parents raised on Tc 1 μg/ml, Day 12 on normal food
[14] = parents raised on Tc 1 μg/ml, Total of Days 1-12 on normal food
[15] = parents raised on Tc 5 μg/ml, Day 8 on normal food
[16] = parents raised on Tc 5 μg/ml, Total of Days 1-12 on normal food
[17] = parents raised on Tc 20 μg/ml, Day 1 on normal food
[18] = parents raised on Tc 20 μg/ml, Day 2 on normal food
[19] = parents raised on Tc 20 μg/ml, Day 3 on normal food
[20] = parents raised on Tc 20 μg/ml, Day 4 on normal food
[21] = parents raised on Tc 20 μg/ml, Day 5 on normal food
[22] = parents raised on Tc 20 μg/ml, Day 6 on normal food
[23] = parents raised on Tc 20 μg/ml, Day 7 on normal food
[24] = parents raised on Tc 100 μg/ml, Day 1 on normal food
[25] = parents raised on Tc 100 μg/ml, Day 2 on normal food
[26] = parents raised on Tc 100 μg/ml, Day 3 on normal food
[27] = parents raised on Tc 100 μg/ml, Day 4 on normal food
[28] = parents raised on Tc 100 μg/ml, Day 5 on normal food
[29] = parents raised on Tc 100 μg/ml, Day 6 on normal food
[30] = parents raised on Tc 100 μg/ml, Day 7 on normal food
[31] = parents raised on Tc 500 μg/ml, Day 1 on normal food
[32] = parents raised on Tc 500 μg/ml, Day 2 on normal food
[33] = parents raised on Tc 500 μg/ml, Day 3 on normal food
[34] = parents raised on Tc 500 μg/ml, Day 4 on normal food
[35] = parents raised on Tc 500 μg/ml, Day 5 on normal food
[36] = parents raised on Tc 500 μg/ml, Day 6 on normal food
[37] = parents raised on Tc 500 μg/ml, Day 7 on normal food
[38] = parents raised on Tc 1000 μg/ml, Day 1 on normal food
[39] = parents raised on Tc 1000 μg/ml, Day 2 on normal food
[40] = parents raised on Tc 1000 μg/ml, Day 3 on normal food
[41] = parents raised on Tc 1000 μg/ml, Day 4 on normal food
[42] = parents raised on Tc 1000 μg/ml, Day 5 on normal food
[43] = parents raised on Tc 1000 μg/ml, Day 6 on normal food
[44] = parents raised on Tc 1000 μg/ml, Day 7 on normal food
[45] = parents raised on Tc 2000 μg/ml, Day 1 on normal food
[46] = parents raised on Tc 2000 μg/ml, Day 2 on normal food
[47] = parents raised on Tc 2000 μg/ml, Day 3 on normal food
[48] = parents raised on Tc 2000 μg/ml, Day 4 on normal food
[49] = parents raised on Tc 2000 μg/ml, Day 5 on normal food
[50] = parents raised on Tc 2000 μg/ml, Day 6 on normal food
[51] = parents raised on Tc 2000 μg/ml, Day 7 on normal food
[52] = parents raised on tetracycline 0.1 μg/ml, 18° C.
[53] = parents raised on tetracycline 0.1 μg/ml, 29° C.
[54] = parents raised on tetracycline 1 μg/ml, 18° C.
[55] = parents raised on tetracycline 1 μg/ml, 29° C.
[56] = parents raised on tetracycline 5 μg/ml, 18° C.
[57] = parents raised on tetracycline 5 μg/ml, 29° C.

CN(C)[C@@H]1C(O)=C(C(N)=O)C(=O)[C@@]2(O)C(O)=C3C(=O)c4c(O)cccc4[C@@](C)(O)[C@H]3C[C@@H]12 [Tetracycline, tetracycline]
LacZ negative Total ([1]; Tetracycline 0.1 μg/ml in food): 709
LacZ positive Total ([1]; Tetracycline 0.1 μg/ml in food): 0
LacZ negative Total ([1]; Tetracycline 1 μg/ml in food): 739
LacZ positive Total ([1]; Tetracycline 1 μg/ml in food): 0
LacZ negative Total ([1]; Tetracycline 5 μg/ml in food): 651
LacZ positive Total ([1]; Tetracycline 5 μg/ml in food): 0
♀ progeny emerging as adults [2, 3]: 0
♂ progeny emerging as adults [2, 3]: 105
♀ progeny emerging as adults [2, 4]: 0
♂ progeny emerging as adults [2, 4]: 133
♀ progeny emerging as adults [2, 5]: 0
♂ progeny emerging as adults [2, 5]: 93
♀ progeny emerging as adults [2, 6]: 0
♂ progeny emerging as adults [2, 6]: 131
♀ progeny emerging as adults [2, 7]: 0
♂ progeny emerging as adults [2, 7]: 121
♀ progeny emerging as adults [2, 8]: 0
♂ progeny emerging as adults [2, 8]: 1363
♀ progeny emerging as adults [2, 9]: 0
♂ progeny emerging as adults [2, 9]: 90
♀ progeny emerging as adults [2, 10]: 0
♂ progeny emerging as adults [2, 10]: 119
♀ progeny emerging as adults [2, 11]: 0
♂ progeny emerging as adults [2, 11]: 94
♀ progeny emerging as adults [2, 12]: 0
♂ progeny emerging as adults [2, 12]: 98
♀ progeny emerging as adults [2, 13]: 0
♂ progeny emerging as adults [2, 13]: 100
♀ progeny emerging as adults [2, 14]: 0
♂ progeny emerging as adults [2, 14]: 1360
♀ progeny emerging as adults [2, 15]: 0
♂ progeny emerging as adults [2, 15]: 119
♂ progeny emerging as adults ([2]; parents raised on Tc 5 μg/ml, Day 9 on normal food): 96
♀ progeny emerging as adults ([2]; parents raised on Tc 5 μg/ml, Day 12 on normal food): 0
♀ progeny emerging as adults [2, 16]: 0
♂ progeny emerging as adults [2, 16]: 1384
♀ progeny emerging as adults [2, 17]: 0
♂ progeny emerging as adults [2, 17]: 89
♀ progeny emerging as adults [2, 18]: 0
♂ progeny emerging as adults [2, 18]: 107
♀ progeny emerging as adults [2, 19]: 0
♂ progeny emerging as adults [2, 19]: 107
♀ progeny emerging as adults [2, 20]: 0
♂ progeny emerging as adults [2, 20]: 98
♀ progeny emerging as adults [2, 21]: 0
♂ progeny emerging as adults [2, 21]: 88
♀ progeny emerging as adults [2, 22]: 0
♂ progeny emerging as adults [2, 22]: 102
♀ progeny emerging as adults [2, 23]: 0
♂ progeny emerging as adults [2, 23]: 107
♀ progeny emerging as adults [2, 24]: 0
♂ progeny emerging as adults [2, 24]: 129
♀ progeny emerging as adults [2, 25]: 0
♂ progeny emerging as adults [2, 25]: 136
♀ progeny emerging as adults [2, 26]: 0
♂ progeny emerging as adults [2, 26]: 128
♀ progeny emerging as adults [2, 27]: 0
♂ progeny emerging as adults [2, 27]: 127
♀ progeny emerging as adults [2, 28]: 0
♂ progeny emerging as adults [2, 28]: 135
♀ progeny emerging as adults [2, 29]: 0
♂ progeny emerging as adults [2, 29]: 144
♀ progeny emerging as adults [2, 30]: 0
♂ progeny emerging as adults [2, 30]: 107
♀ progeny emerging as adults [2, 31]: 2
♂ progeny emerging as adults [2, 31]: 136
♀ progeny emerging as adults [2, 32]: 0
♂ progeny emerging as adults [2, 32]: 88
♀ progeny emerging as adults [2, 33]: 0
♂ progeny emerging as adults [2, 33]: 113
♀ progeny emerging as adults [2, 34]: 0
♂ progeny emerging as adults [2, 34]: 113
♀ progeny emerging as adults [2, 35]: 0
♂ progeny emerging as adults [2, 35]: 87
♀ progeny emerging as adults [2, 36]: 0
♂ progeny emerging as adults [2, 36]: 94
♀ progeny emerging as adults [2, 37]: 0
♂ progeny emerging as adults [2, 37]: 109
♀ progeny emerging as adults [2, 38]: 13
♂ progeny emerging as adults [2, 38]: 107
♀ progeny emerging as adults [2, 39]: 5
♂ progeny emerging as adults [2, 39]: 140
♀ progeny emerging as adults [2, 40]: 0
♂ progeny emerging as adults [2, 40]: 110
♀ progeny emerging as adults [2, 41]: 0
♂ progeny emerging as adults [2, 41]: 141
♀ progeny emerging as adults [2, 42]: 0
♂ progeny emerging as adults [2, 42]: 98
♀ progeny emerging as adults [2, 43]: 0
♂ progeny emerging as adults [2, 43]: 129
♀ progeny emerging as adults [2, 44]: 0
♂ progeny emerging as adults [2, 44]: 88
♀ progeny emerging as adults [2, 45]: 32
♂ progeny emerging as adults [2, 45]: 119
♀ progeny emerging as adults [2, 46]: 15
♂ progeny emerging as adults [2, 46]: 102
♀ progeny emerging as adults [2, 47]: 12
♂ progeny emerging as adults [2, 47]: 107
♀ progeny emerging as adults [2, 48]: 9
♂ progeny emerging as adults [2, 48]: 109
♀ progeny emerging as adults [2, 49]: 8
♂ progeny emerging as adults [2, 49]: 109
♀ progeny emerging as adults [2, 50]: 2
♂ progeny emerging as adults [2, 50]: 140
♀ progeny emerging as adults [2, 51]: 0
♂ progeny emerging as adults [2, 51]: 127
Female progeny emerging as adults [2, 52]: 2
Male progeny emerging as adults [2, 52]: 1190
Female progeny emerging as adults [2, 53]: 0
Male progeny emerging as adults [2, 53]: 718
Female progeny emerging as adults [2, 54]: 4
Male progeny emerging as adults [2, 54]: 1213
Female progeny emerging as adults [2, 55]: 0
Male progeny emerging as adults [2, 55]: 753
Female progeny emerging as adults [2, 56]: 0
Male progeny emerging as adults [2, 56]: 1058
Female progeny emerging as adults [2, 57]: 0
Male progeny emerging as adults [2, 57]: 757
parental food concentration leading to survival of a small proportion of female progeny ([2]; progeny on media lacking Tc): ≥ 500 µg/mL
food concentration sufficient to suppress expression of the toxic gene, allowing both males and females to survive ([2]; strain grown on supplemented food): 0.1 µg/mL
